# What was measured:
# [1] = room temperature; crystalline powder; cited from earlier work
# thromboxane B2 = settings: either ticagrelor group
# [2] = test system: patients with a history of myocardial infarction; assay: PEGASUS-TIMI 54 trial, efficacy endpoints (intention-to-treat / full analysis set); assay type: in vivo, human
# Description: The PEGASUS-TIMI 54 trial (also referred to as the PEGASUS trial or PEGASUS study herein) was a randomized, double-blind, placebo-controlled multinational clinical trial that enrolled over 21,000 patients at 1,161 sites in 31 countries. The protocol was approved by the relevant ethics committees at all participating sites. In the U.S., the PEGASUS trial was assigned a ClinicalTrials.gov number of NCT01225562.
# Patients could be randomized regardless of their prior adenosine diphosphate (ADP) receptor blocker therapy or a lapse in therapy.
# Randomization was performed using a central computerized telephone or web based system, and allocation was double-blind.
# All patients enrolled in the PEGASUS trial were instructed to take open label aspirin at a dose of 75 to 150 mg daily.
# A total of 1360 primary endpoint events would be required to provide approximately 90% power to detect a 20% relative risk reduction with the 90 mg twice daily dose and approximately 83% power to detect a 19% relative risk reduction with the 60 mg twice daily dose when each dose was compared individually with placebo. The primary efficacy analysis was conducted on an intention-to-treat basis, with each of the two doses individually compared to placebo, as a time to event analysis from randomization to the first occurrence of any element of the primary composite endpoint: cardiovascular death, myocardial infarction, or stroke. […] An exploratory analysis of both doses combined compared with placebo was prespecified.
# [3] = 60 mg bd, 5695 patients with a coronary stent
# [4] = 60 mg bid (N = 7045), at 3 years
# [5] = 60 mg bid vs. placebo (N = 6958)
structure (smiles),measurement,setting,value
"CCCSc1nc(N[C@@H]2C[C@H]2c2ccc(F)c(F)c2)c2nnn([C@@H]3C[C@H](OCCO)[C@@H](O)[C@H]3O)c2n1 [Ticagrelor, (1S,2S,3R,5S)-3-[7-{[(1R,2S)-2-(3,4-difluorophenyl)cyclopropyl]amino}-5-(propylthio)-3H-[1,2,3]-triazolo[4,5-d]pyrimidin-3-yl]-5-(2-hydroxyethoxy)cyclopentane-1,2-diol]",aqueous solubility,[1],approximately 10 μg/mL
same,serum thromboxane B2 levels vs placebo group,thromboxane B2,no differences
same,Time to first stent thrombosis: HR,[2]; 60 mg bd vs placebo,0.82
same,"Composite of CV Death/MI/Stroke, landmark: KM % at 12 months","[2]; 60 mg bd, 1-360 days",2.7%
same,"Composite of CV Death/MI/Stroke, landmark: Patients with events","[2]; 60 mg bd, 1-360 days",189
same,"Composite of CV Death/MI/Stroke, landmark: Patients with events (%)","[2]; 60 mg bd, 1-360 days",(2.7%)
same,Stent thrombosis: Patients (%) with events,[2]; [3],(0.7%)
same,Stent thrombosis: Patients with events,[2]; [3],41
same,"Composite of CV Death/MI/Stroke, landmark: Patients with events","[2]; 60 mg bd, 361 days or more",298
same,"Composite of CV Death/MI/Stroke, landmark: Patients with events (%)","[2]; 60 mg bd, 361 days or more",(4.4%)
same,Stent thrombosis: KM %,"[2]; 60 mg bd, at 36 months",0.8%
same,"Composite of CV Death/MI/Stroke, landmark: KM % at 24 months","[2]; 60 mg bd, cumulative from day 361 to day 720",2.7%
same,"Composite of CV Death/MI/Stroke, landmark: KM % at 36 months","[2]; 60 mg bd, cumulative from day 361 to day 1080",5.2%
same,MI: ARR (%),[2]; 60 mg bid,0.72%
same,MI: NNT,[2]; 60 mg bid,139
same,Stroke: ARR (%),[2]; 60 mg bid,0.47%
same,Stroke: NNT,[2]; 60 mg bid,213
same,All Stroke: n,[2]; 60 mg bid (N = 7045),91
same,Cardiovascular Death or Myocardial infarction: 3-year Kaplan-Meier estimate,[2]; 60 mg bid (N = 7045),(6.77) %
same,Cardiovascular Death or Myocardial infarction: n,[2]; 60 mg bid (N = 7045),422
same,"Cardiovascular Death, Myocardial infarction, or Stroke: 3-year Kaplan-Meier estimate",[2]; 60 mg bid (N = 7045),7.77%
same,"Cardiovascular Death, Myocardial infarction, or Stroke: n",[2]; 60 mg bid (N = 7045),487
same,Cardiovascular Death: n,[2]; 60 mg bid (N = 7045),174
same,Coronary Heart Disease Death or Myocardial infarction: 3-year Kaplan-Meier estimate,[2]; 60 mg bid (N = 7045),(5.57) %
same,Coronary Heart Disease Death or Myocardial infarction: n,[2]; 60 mg bid (N = 7045),360
same,"Coronary Heart Disease Death, Myocardial infarction, or Stroke: 3-year Kaplan-Meier estimate",[2]; 60 mg bid (N = 7045),(7.09) %
same,"Coronary Heart Disease Death, Myocardial infarction, or Stroke: n",[2]; 60 mg bid (N = 7045),445
same,Coronary Heart Disease Death: 3-year Kaplan-Meier estimate,[2]; 60 mg bid (N = 7045),(1.72) %
same,Coronary Heart Disease Death: n,[2]; 60 mg bid (N = 7045),106
same,Death from any cause: n,[2]; 60 mg bid (N = 7045),289
same,Hospitalization for Unstable Angina: n,[2]; 60 mg bid (N = 7045),39
same,Ischemic Stroke: 3-year Kaplan-Meier estimate,[2]; 60 mg bid (N = 7045),(1.28) %
same,Ischemic Stroke: n,[2]; 60 mg bid (N = 7045),78
same,Myocardial infarction as first-occurring component of the composite: n (patients with event),[2]; 60 mg bid (N = 7045),283
same,Myocardial infarction: n,[2]; 60 mg bid (N = 7045),285
same,Stroke as first-occurring component of the composite: n (patients with event),[2]; 60 mg bid (N = 7045),88
same,Transient Ischemic Attack: n,[2]; 60 mg bid (N = 7045),17
same,Urgent Coronary Revascularization for Unstable Angina: n,[2]; 60 mg bid (N = 7045),62
same,Hospitalization for Unstable Angina: (%),[2]; [4],(0.61) %
same,Transient Ischemic Attack: (%),[2]; [4],(0.27) %
same,Urgent Coronary Revascularization for Unstable Angina: (%),[2]; [4],(0.95) %
same,Cardiovascular Death or Myocardial infarction: HR,[2]; 60 mg bid vs Placebo,0.85
same,"Cardiovascular Death, Myocardial infarction, or Stroke: HR",[2]; 60 mg bid vs Placebo,0.84
same,Cardiovascular Death: HR,[2]; 60 mg bid vs Placebo,0.83
same,Coronary Heart Disease Death or Myocardial infarction: HR,[2]; 60 mg bid vs Placebo,0.84
same,"Coronary Heart Disease Death, Myocardial infarction, or Stroke: HR",[2]; 60 mg bid vs Placebo,0.83
same,Coronary Heart Disease Death: HR,[2]; 60 mg bid vs Placebo,0.80
same,Coronary stent thrombosis: RRR,[2]; 60 mg bid vs Placebo,18%
same,Death from any cause: HR,[2]; 60 mg bid vs Placebo,0.89
same,Hospitalization for Unstable Angina: HR,[2]; 60 mg bid vs Placebo,1.05
same,Ischemic Stroke: HR,[2]; 60 mg bid vs Placebo,0.76
same,Transient Ischemic Attack: HR,[2]; 60 mg bid vs Placebo,1.00
same,Urgent Coronary Revascularization for Unstable Angina: HR,[2]; 60 mg bid vs Placebo,0.82
same,"coronary heart disease death, myocardial infarction, or stroke: RRR",[2]; 60 mg bid vs Placebo,17%
same,"Irreversible harm (CV death, MI, stroke, ICH, or fatal bleeding): HR",[2]; [5],0.86
same,"Irreversible harm (CV death, MI, stroke, ICH, or fatal bleeding): RRR (%)",[2]; [5],14%
same,"Net clinical benefit (CV death, MI, stroke, or TIMI major bleeding): HR",[2]; [5],0.95
same,"Net clinical benefit (CV death, MI, stroke, or TIMI major bleeding): RRR (%)",[2]; [5],5%
same,"ischemic events prevented if 10,000 patients were started on treatment versus placebo","[2]; 60 mg bid, intention-to-treat data",42
same,Time to first stent thrombosis: HR,[2]; 90 mg bd vs placebo,0.64
same,"Composite of CV Death/MI/Stroke, landmark: KM % at 12 months","[2]; 90 mg bd, 1-360 days",2.8%
same,"Composite of CV Death/MI/Stroke, landmark: Patients with events","[2]; 90 mg bd, 1-360 days",198
